Assay results from patent US20030096237A1, “Determination of the ability of patients to respond to a tumor treatment” (priority 2000, published 2003).

Tested on: CNCM I-2546
Assay: oligonucleotide array analysis of IFN-α modulated gene expression
Format: cell-based, human
Procedure: All these cell lines were cultured in RPMI medium supplemented with 10% FCS, glutamine (2 mM), sodium pyruvate (1 mM), non-essential amino acids and HEPES buffer (10 mM) (all from GIBCO Life Sciences, Paisley, UK). When confluent, the cells were passaged by trypsinization.
Cultured melanoma cells were harvested by scraping and total cellular RNA was extracted. 10 μg from each sample were used directly as templates for cDNA synthesis using a commercial kit (Roche Molecular Biochemicals, Rotkreuz, Switzerland). The T7 promoter sequence incorporated into the cDNA synthesis primer allowed template amplification and biotin labeling by in vitro transcription using a commercial kit (Affymetrix, Santa Clara, Calif.). After alkaline heat fragmentation […] was hybridised to the array (Affymetrix, Santa Clara, Calif.) and all subsequent steps were performed following standard procedures as supplied with the arrays. Raw data were collected with a confocal laser scanner (Hewlett Packard, Palo Alto, Calif.) using GeneChip software v3.1 (Affymetrix, Santa Clara, Calif.).
Raw data were normalized based on the total chip signal obtained upon hybridisation of ME15 cell line cDNA. This array was selected because: i) the 5′/3′ intensity ratio of control genes was smaller than 3; ii)>25% of the genes are called “present” by Genechip; iii) the image appearance is homogeneous with low background and no sign of mechanical chip damage.
The normalized average difference (nAD) between the signals of the perfect and of the mismatch probesets for each gene was used as the expression level of a given gene. At least one nAD value in a pairwise comparison of data has to exceed 50 to be included. Based on nAD, change factors related to IFN-α exposure were also calculated. Negative nAD values were set to 20 in order to avoid the calculation of artificially high modifications. In order to exclude artefacts, only genes with robust change factors, greater than 2-fold, were included in the analysis. […] Genes were clustered according to their mode of regulation.
Total cellular RNA was extracted from the sensitive and resistant melanoma cell lines identified above, reverse transcribed and processed for hybridization to an oligonucleotide array (Hu6800FL, PN 900183) containing probe sets derived from 7000 full-length human genes. Expression levels for each gene were calculated as normalized average difference (nAD, see materials and methods).
Patterns of genes expressed in IFN-α sensitive and resistant melanoma cell lines were investigated upon 48 hour culture in the presence of IFN-α. CNCM I-2546 and CNCM I-2545 were studied in detail.
In Table 2 below, CNCM I-2546 and CNCM I-2545 cultured for 48 hours in the absence or in the presence of 100 U/ml IFN-α were used to assay cytokine modulated gene expression as matched with data obtained in fibrosarcoma cells. This analysis yielded six clusters of genes. […] Data are presented as average difference of signal intensity between match and mismatch probesets.
In Table 3 below, CNCM I-2546 and CNCM I-2545 cell lines cultured for 48 hours in the absence or in the presence of 100 U/ml IFN-α were used to identify novel cytokine induced genes whose expression was not found to be modulated in fibrosarcoma cells. Cluster 1 includes genes inducible in the CNCM I-2546 sensitive but not in the CNCM I-2545 resistant cell line. Cluster 2 comprises genes inducible in both lines. Data are presented as average difference of signal intensity between match and mismatch probesets.

[1] = CNCM I-2546, IFN-α 100 U/ml 48 hours

IFN-α
change factor (CF) D28137 bst-2 [1]: 9.89
change factor (CF) D32050 alanyl-trna synthetase [1]: 19.33
change factor (CF) D49824 hla-b null allele [1]: 5.42
change factor (CF) D50914 EST [1]: 2.26
change factor (CF) D78132 rheb gene, ras-related gtp binding protein gene [1]: 1.58
change factor (CF) HG658 major histocompatibility complex, class 1 c [1]: 9.85
change factor (CF) HG1612 macmarcks [1]: 2.59
change factor (CF) HG2917 major histocompatibility complex, class i, e [1]: 4.53
change factor (CF) J00105 beta-2 microglobulin gene [1]: 4.86
change factor (CF) J00212 leukocyte interferon (ifn-alpha) [1]: −1.82
change factor (CF) J03909 gamma-interferon-inducible protein (ip-30) [1]: 1.85
change factor (CF) J04164 interferon-inducible protein 27-sep [1]: 102.3
change factor (CF) J04182 lysosomal membrane glycoprotein-1 (lamp1) [1]: 1.69
change factor (CF) J04444 cytochrome c-1 gene [1]: 3.16
change factor (CF) K01900 lymphocyte interferon alpha type 201 [1]: 0.55
change factor (CF) K03515 neuroleukin [1]: 3.37
change factor (CF) L07633 interferon-gamma [1]: 1.52
change factor (CF) L13210 mac-2 binding protein [1]: 3.54
change factor (CF) L35249 vacuolar h + -atpase mr 56,000 subunit (ho57) [1]: 1.47
change factor (CF) L37043 casein kinase i epsilon [1]: 21.05
change factor (CF) L40387 thyroid receptor interactor (trip14) [1]: 3.25
change factor (CF) L42243 ifnar2 gene (interferon receptor) [1]: −1.3
change factor (CF) M13755 interferon-induced 17-kda/15-kda protein [1]: 34.8
change factor (CF) M19650 2′,3′-cyclic nucleotide 3prime-phosphodiesterase [1]: 3.89
change factor (CF) M30818 interferon-induced cellular resistance mediator protein [1]: −3.88
change factor (CF) M31013 nonmuscle myosin heavy chain (nmhc) [1]: 2.34
change factor (CF) M34338 spermidine synthase [1]: 2.29
change factor (CF) M60784 ul snrnp-specific protein [1]: 8
change factor (CF) M65028 heterogeneous nuclear ribonucleoprotein a/b [1]: 1.13
change factor (CF) M79462 pml-1 [1]: −1.15
change factor (CF) M92642 alpha-1 type xvi collagen (col16a1) [1]: 0
change factor (CF) M94880 mhc class i (hla-a*8001) [1]: 3.61
change factor (CF) M97935 transcription factor isgf-3 [1]: 13.8
change factor (CF) M98343 amplaxin (ems1) [1]: 6.05
change factor (CF) S81914 iex-1 = radiation-inducible immediate-early gene [1]: 9.06
change factor (CF) U01824 glutamate/aspartate transporter [1]: 3.55
change factor (CF) U09579 melanoma differentiation associated (mda-6) [1]: 3.35
change factor (CF) U18009 chromosome 17q21 clone lf113 [1]: 2.93
change factor (CF) U18018 ela enhancer binding protein (ela-f) [1]: 2.18
change factor (CF) U22970 16-jun gene, interferon-inducible peptide (6-16) [1]: 53.95
change factor (CF) U41515 dss1 [1]: −1.04
change factor (CF) U47025 fetal brain glycogen phosphorylase b [1]: 3.79
change factor (CF) U50327 protein kinase c substrate 80k-h gene (prkcsh) [1]: 2.9
change factor (CF) U50648 interferon-inducible rna-dependent protein kinase (pkr) [1]: 2.55
change factor (CF) U51127 interferon regulatory factor 5 [1]: 4.8
change factor (CF) U52513 rig-g [1]: 0.96
change factor (CF) U53830 interferon regulatory factor 7a [1]: 10.85
change factor (CF) U61263 acetolactate synthase homolog [1]: 2.09
change factor (CF) U65579 mitochondrial nadh dehydrogenase-ubiquinone [1]: 2.43
change factor (CF) U65932 extracellular matrix protein 1 (ecm1) [1]: 2.02
change factor (CF) U69126 fuse binding protein 2 (fbp2) [1]: 2.92
change factor (CF) U70063 human acid ceramidase [1]: 1.57
change factor (CF) U72206 guanine nucleotide regulatory factor (lfp40) [1]: 3.06
change factor (CF) U72882 interferon-induced leucine zipper protein (ifp35) [1]: 24.1
change factor (CF) U78525 human eukaryotic translation initiation factor (eif3) [1]: 1.14
change factor (CF) U91316 acyl-coa thioester hydrolase [1]: 4.01
change factor (CF) X04412 plasma gelsolin [1]: 2.48
change factor (CF) X07730 prostate specific antigen [1]: 5.6
change factor (CF) X15949 interferon regulatory factor-2 (irf-2) [1]: −2.35
change factor (CF) X57351 1-8d gene from interferon-inducible gene family [1]: 113.8
change factor (CF) X57522 ring4 cdna [1]: 3.85
change factor (CF) X67325 p27 [1]: 19.5
change factor (CF) X70848 protein phosphatase 1, catalytic subunit [1]: 2.03
change factor (CF) X76538 mpv17 [1]: 3.06
change factor (CF) X90846 mixed lineage kinase 2 [1]: −1.46
change factor (CF) X95325 dna binding protein a variant [1]: 5.47
change factor (CF) X96401 rox protein [1]: 3.21
change factor (CF) Y00264 amyloid a4 precursor [1]: 2.42
change factor (CF) Z26491 gene catechol o-methyltransferase [1]: 3.62
change factor (CF) Z47055 farnesyl pyrophosphate synthetase like [1]: 1.01
change factor (CF) Z56281 interferon regulatory factor 3 [1]: 5.8
nAD D28137 bst-2 (Table 3, CNCM I-2546 (+) IFN-α 100 U/ml 48 hours, (−) 28): 305
change factor (CF) D28137 bst-2 (Table 3, CNCM I-2546, IFN-α 100 U/ml 48 hours): 9.89
